Measured values taken from publication PMC10349806 (Nature Communications, 2023).
Substitutions are numbered along the chain they refer to. Several values for one entry are separate records, joined by “and”; a condition that tells them apart may be missing. Equal values may be shown once.

Experiments:
[1] = molecular target: T1, PfCRT variant D310A (Plasmodium falciparum, UniProt Q9N623, A220S/D310A/I356T/K76T/M74I/N326S/N75E/Q271E/R371I); test: CQ uptake assay, oocytes expressing D310A; type: cell-based
T1 sequence (Q9N623 1-424 M74I/N75E/K76T/A220S/Q271E/D310A/N326S/I356T/R371I): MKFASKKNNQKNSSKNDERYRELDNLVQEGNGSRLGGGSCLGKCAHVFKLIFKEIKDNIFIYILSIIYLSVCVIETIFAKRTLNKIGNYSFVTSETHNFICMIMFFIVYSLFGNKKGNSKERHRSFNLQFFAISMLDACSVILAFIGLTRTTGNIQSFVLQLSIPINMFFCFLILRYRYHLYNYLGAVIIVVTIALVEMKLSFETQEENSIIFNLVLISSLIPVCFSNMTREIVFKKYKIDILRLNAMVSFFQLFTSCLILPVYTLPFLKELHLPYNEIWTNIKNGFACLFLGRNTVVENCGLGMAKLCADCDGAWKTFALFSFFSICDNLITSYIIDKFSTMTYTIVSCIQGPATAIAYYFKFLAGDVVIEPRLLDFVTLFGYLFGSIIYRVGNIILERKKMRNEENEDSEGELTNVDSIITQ
Experimental: (§1) Site-directed mutagenesis of PfCRT^Dd2 was performed as described using the megaprimer method with overlap extension[21],[54]. The primer pairs used are listed in Supplementary Table 6. Please note that a codon-optimized and oocyte-adapted version of PfCRT^Dd2 was used[22] (Supplementary Fig. 16). The resulting DNA fragment was cloned into the SP64T expression vector and verified by sequencing.
(§2) Oocytes were obtained as described previously. Briefly, adult (>2 years old) female X. laevis frogs (NASCO) were anesthetized in a cooled solution of ethyl 3-amino benzoate methanesulfonate (0.1%, w/v), followed by a surgical removal of parts of the ovary. The ovary lobes were carefully dissected and small pieces of oocytes were incubated in Ca^2+-free ND96 buffer (96 mM NaCl, 2 mM KCl, 1 mM MgCl2 buffered with 5 mM HEPES/NaOH, pH 7.5) supplemented with collagenase D (0.1%, w/v; Roche), BSA (0.5%, w/v), and 9 mm Na2HPO4 at 18 °C for 14-16 h while gentle shaking. After incubation, the oocytes were carefully washed several times with ND96 buffer (96 mM NaCl, 2 mM KCl, 1.8 mM CaCl2, 1 mM MgCl2 buffered with 5 mM HEPES/NaOH, pH 7.5) supplemented with 100 mg l^−1 gentamycin). Defolliculated and healthy-looking stage V-VI oocytes were manually selected for RNA microinjection. The RNA was generated as following: The codon-optimized sequences of PfCRT variants were cloned into the pSP64T expression vector. After vector linearization using the restriction endonucleases BamHI or SalI (New England Biolabs), transcription was performed using the in vitro SP6 mMessage mMachine Kit (Ambion)[34]. The obtained RNA was kept at −80 °C and diluted with nuclease-free water to a concentration of 0.6 μg μl^−1. Precision-bore glass capillary tubes (3.5-inch glass capillaries; Drummond Scientific Co.) were pulled on a vertical puller (P-87 Flaming/Brown micropipette puller, Sutter Instrument Co.), graduated, and placed on a microinjector (Nanoject II Auto-Nanoliter Injector, Drummond Scientific Co.). 50 nl of nuclease-free water alone (control oocytes) or 50 nl of 0.6 μg μl^−1 RNA were injected under stereomicroscopic control. Injected oocytes were incubated for 46–72 h at 18 °C with twice-daily buffer changes before usage in experiments.
Drug uptake assays were performed as described previously[21],[22],[24],[34]. […] The direction of radio-labeled drug transport is here from the mostly acidic extracellular solution (pH 4.5 or 6.0, as indicated) into the oocyte cytosol (pH ∼ 7.2), which corresponds to the efflux of drug from the acidic digestive vacuole (pH 5.2) into the parasite cytoplasm (pH 7.2). The topology of PfCRT in the oolemma is such that both the N- and C-terminus face the extracellular milieu[3],[22]. In the parasite, the N- and C-terminus face the lumen of the digestive vacuole. CQ uptake kinetics were performed by incubating oocytes in ND96 buffer adjusted to a pH of 4.5, 5.0, 5.5, or 6.0 and supplemented with 50 nM [^3H]CQ and one of 7 different CQ concentrations (10 µM, 50 µM, 100 µM, 200 µM, 300 µM, 400 µM, 500 µM CQ). The reaction was stopped at the 60 min time point, which is in the linear uptake range[22],[34] (Supplementary Fig. 17). For determination of the amount of drug uptake for each oocyte, the reaction medium was removed and the oocytes were washed three times with 2 ml of ice-cold ND96 buffer. Each oocyte was individually transferred to a scintillation vial containing 5% sodium dodecyl sulfate (200 μl) for lysis. The radioactivity of each sample was measured using a liquid scintillation analyzer Tri-Carb 4910 TR (PerkinElmer). Oocytes that were injected with water instead of RNA were analyzed in parallel, representing the uptake of a drug by diffusion and/or endogenous permeation pathways. The resulting value represents the “background“ level of drug accumulation in oocytes (in-depth discussion in[22]). […]

[2] = molecular target: T2, PfCRT variant D368A (Plasmodium falciparum, UniProt Q9N623, A220S/D368A/I356T/K76T/M74I/N326S/N75E/Q271E/R371I); test: CQ uptake assay, oocytes expressing D368A; type: cell-based
T2 sequence (Q9N623 1-424 M74I/N75E/K76T/A220S/Q271E/N326S/I356T/D368A/R371I): T1 sequence (Q9N623 1-424 M74I/N75E/K76T/A220S/Q271E/D310A/N326S/I356T/R371I) with A310D, D368A
Experimental: as §1, §2
Drug uptake assays were performed as described previously[21],[22],[24],[34]. […] The direction of radio-labeled drug transport is here from the mostly acidic extracellular solution (pH 4.5 or 6.0, as indicated) into the oocyte cytosol (pH ∼ 7.2), which corresponds to the efflux of drug from the acidic digestive vacuole (pH 5.2) into the parasite cytoplasm (pH 7.2). The topology of PfCRT in the oolemma is such that both the N- and C-terminus face the extracellular milieu[3],[22]. In the parasite, the N- and C-terminus face the lumen of the digestive vacuole. CQ uptake kinetics were performed by incubating oocytes in ND96 buffer adjusted to a pH of 4.5, 5.0, 5.5, or 6.0 and supplemented with 50 nM [^3H]CQ and one of 7 different CQ concentrations (10 µM, 50 µM, 100 µM, 200 µM, 300 µM, 400 µM, 500 µM CQ). The reaction was stopped at the 60 min time point, which is in the linear uptake range[22],[34] (Supplementary Fig. 17). […] The radioactivity of each sample was measured using a liquid scintillation analyzer Tri-Carb 4910 TR (PerkinElmer). Oocytes that were injected with water instead of RNA were analyzed in parallel, representing the uptake of a drug by diffusion and/or endogenous permeation pathways. […]

[3] = D310A, 50 µM CQ, 1 h, mean ± SEM
[4] = pH 4.5, single replicates, Fig 1d left
[5] = pH 6.0, single replicates, Fig 1d left
[6] = D368A, 50 µM CQ, 1 h, mean ± SEM

## CCN(CC)CCCC(C)Nc1ccnc2cc(Cl)ccc12 (centres unmarked) [CQ, chloroquine]
[1]; [3]
  Activity at pH 4.5: 0.96 ± 0.15 pmol h-1 oocyte-1
  Activity at pH 6.0: 1.25 pmol h-1 oocyte-1 and 1.25 ± 0.18 pmol h-1 oocyte-1
[1]; D310A, CQ transport at pH 4.5 / pH 6.0
  R-value: 0.77 and 0.77 ± 0.07
[1]; [4]
  D310A transport activity pH 4.5: 0.65 pmol oocyte-1 h-1 and 1.30 pmol oocyte-1 h-1 and 0.92 pmol oocyte-1 h-1
[1]; pH 4.5 vs pH 6.0, Fig 1d left
  D310A R-value: 0.79 and 0.92 and 0.61
[1]; [5]
  D310A transport activity pH 6.0: 0.82 pmol oocyte-1 h-1 and 1.42 pmol oocyte-1 h-1 and 1.51 pmol oocyte-1 h-1
[2]; [6]
  Activity at pH 4.5: 1.36 ± 0.32 pmol h-1 oocyte-1
  Activity at pH 6.0: 3.05 ± 0.29 pmol h-1 oocyte-1
[2]; D368A, CQ transport at pH 4.5 / pH 6.0
  R-value: 0.44 ± 0.08
[2]; [4]
  D368A transport activity pH 4.5: 2.14 pmol oocyte-1 h-1 and 0.90 pmol oocyte-1 h-1 and 1.05 pmol oocyte-1 h-1
[2]; [5]
  D368A transport activity pH 6.0: 3.49 pmol oocyte-1 h-1 and 3.31 pmol oocyte-1 h-1 and 2.36 pmol oocyte-1 h-1
